From patent publication US11241436B2, “Autophagy inducers for treatment of CNS conditions” (Northwestern University, priority 2017, dated 2022)
Like-named read-outs stand apart in the source and are kept apart here.

Experiments:
[1] = tested on: WT primary cortical neurons; assay: TUNEL assay of primary cortical neurons treated with conditioned media of APP-HEK293 cells; assay type: cell-based, mouse
Description: Nuclei were stained with DAPI. Scale bar, 100 μm. N=10 fields (each field containing 20-30 neurons).
TUNEL assays. APP-HEK293 cells were cultured in 6-well dishes for 24 h and then the media was replaced with neuronal culture media. After 48 h, conditioned media was collected and used to treat primary cortical neurons (12 DIV) cultured on poly-L-lysine coated slides for another 24 h. Apoptotic neurons were detected by the In Situ Cell Death Detection Kit, TMR red (Roche, cat. #12156792910) according to the manufacturer's instructions. Nuclei were stained using the mounting medium containing DAPI (Vectashield). Quantification of red TUNEL-positive neurons was done using the NIS Elements software.

Beclin 2-GASP1 binding = assay: Coimmunoprecipitation of endogenous GASP1 with endogenous Beclin 2 from mouse brain lysates; assay type: in vivo; settings: injection to WT mice
Text: Lysates in each group were pooled from 3 mice.
(§1) Based on this model, the effect of these inducers on the Beclin 2-GASP1 interaction in vitro and in mouse brain were subsequently examined.

[2] = tested on: HEK293 cells stably expressing APP; assay: Dot blot of secreted Aβ42 in conditioned media of APP-HEK293 cells; assay type: cell-based, human
Description: Cells were transfected with non-targeting control (NC) or ATG7 siRNA 24 h prior to ML246 treatment. Results are quantified from 4 independent experiments.
In addition to Becn2^F121A-mediated genetic activation of autophagy, it was decided to further study whether stimulating autophagy pharmacologically is also protective against neurodegenerative progression. A brain-penetrable autophagy-inducing small molecule ML246 (metarrestin) was recently identified, and analyzed its effects on the clearance of aggregate-prone proteins in vitro and in vivo. For in vitro analyses, the HEK293 cell line stably expressing APP (APP-HEK293) was utilized, in which the produced Aβ molecules are efficiently secreted, to study the effect of ML246 on amyloid metabolism. […] In addition, cultured WT primary cortical neurons treated with the conditioned media from ML246-treated APP-HEK293 cells underwent a lower level of apoptotic cell death than those treated with media from vehicle-treated APP-HEK293 cells (FIG. 18B).
Dot blot assay. […] Protein concentration was quantified using BCA Assay (Pierce). […] The membrane was stained with Ponceau S, and the dot blot signal on the membrane was detected by immunostaining with Aβ42 antibody (Invitrogen, 700254, 1:1000) and HRP-conjugated secondary antibody (Santa Cruz Biotechnology, sc2004, 1:2000). […]

HTT aggregates = assay: Fluorescence imaging of HTT inclusions in HeLa cells; assay type: cell-based
Text: Blue, DAPI. Results represent mean±s.e.m. Scale bar: 20 μm. Statistics compare each value to the one under the “-” condition. **, P<0.01; ***, P<0.001; NS, not significant, t test.
ML246 promotes the removal of intracellular aggregates formed by polyglutamine (polyQ)-expansion proteins. HeLa cell lines stably expressing tetracycline-repressible expanded polyQ-repeat protein HTT (huntingtin) was used as a model, HTT65Q and HTT103Q. In contrast to the HTT protein with the normal number of glutamine repeats (HTT25Q), HTT65Q and HTT103Q formed insoluble polyQ aggregates larger than 0.2-μm diameter, which can be detected by filter trap assay. […] Fluorescence imaging further confirmed that ML246 administration decreased the number of cells positive for HTT aggregates, which is also in an ATG7-dependent manner (FIG. S6B).
Accordingly, whether Rg2 affects the clearance of proteinaceous inclusions in vitro was next determined, using HeLa cell lines expressing tetracycline-repressible expanded polyglutamine (polyQ)-repeat protein HTT (huntingtin), HTT65Q and HTT103Q. Unlike the HTT protein with the normal number of glutamine repeats (HTT25Q), HTT65Q and HTT103Q formed insoluble polyQ aggregates larger than 0.2-μm diameter, which were detected by filter trap assays (FIG. 5A).

WT mice = assay: Analgesic tolerance test during chronic WIN treatment; assay type: in vivo, mouse; settings: WT mice, co-treatment with daily WIN for 14 d, compared with vehicle
Description: Briefly, mice were injected with WIN for 14 d, and analgesic tolerance was measured without WIN treatment on day 0, and after 1-h WIN treatment on day 1 and day 14.
There were no genotype differences either in basal pain sensitivity to infrared heat-generated pain (agonist-free, day 0) (FIG. 2C), or in analgesic effects of acute WIN treatment prior to chronic WIN administration (day 1) (FIG. 2D).

CB1R = assay: Brain CB1R (CNR1) level by Western blot after chronic WIN; assay type: in vivo, mouse; settings: mice concurrently treated with daily WIN for 14 d
Description: To investigate whether restoration of CB1R signaling underlies the behavioral regulation by autophagy activation, the level and functionality of CB1R in mouse brain after co-administration of chronic cannabinoids and autophagy inducers were analyzed. […] To determine whether the increased level of CB1R represents CB1R re-sensitization in the brain, the agonist-induced phosphorylation of signaling kinases downstream of CB1R after chronic WIN exposure were analyzed.

[3] = tested on: Beclin 2-GASP1 interaction; assay: Coimmunoprecipitation of endogenous GASP1 with Flag-human Beclin 2 in HEK293 cells; assay type: cell-based; settings: 3 h
Text: as §1

[4] = mouse, in vivo
[5] = mouse
5XFAD mice = assay: Contextual fear conditioning test of 5XFAD mice; assay type: in vivo, mouse; settings: Rg2 for 4 months
Description: Fear conditioning training exposed mice to 2-s electrical foot shocks separated by 1-min interval through a grid floor at the bottom of the chamber. On the following day, the mice were returned to the same chamber and their movements were recorded with a video camera to test for contextual conditioning. Freezing (very low levels of movement) in the training environment indicate context-associated fear. WT mice without APP transgene were used as negative control in the above studies. N=8. *, P<0.05; **, P<0.01, t test.

[6] = tested on: HeLa cell lines expressing HTT

Structure (SMILES) | apoptotic cell death of neurons ([1]; conditioned media from ML246-treated APP-HEK293 cells vs vehicle-treated) | ML246-mediated reduction of apoptotic neuronal death ([1]; siRNA knockdown of ATG7 in APP-HEK293 cells) | binding between endogenous Beclin 2 and endogenous GASP1 (Beclin 2-GASP1 binding) | level of secreted Aβ in the conditioned media ([2]; APP-HEK293 cells, 24 h) | ML246-mediated reduction of secreted Aβ42 ([2]; siRNA knockdown of ATG7) | number of cells positive for HTT aggregates (HTT aggregates; ML246) | pain-relieving effect of WIN on day 14 (WT mice) | levels of CB1R (CNR1) in the brain (CB1R) | coimmunoprecipitation of endogenous GASP1 by Beclin 2 [3] | food intake [4] | number of cells positive for HTT aggregates (HTT aggregates; Rg2) | percentage bound by plasma protein ([5]; 10 μg/ml) | percentage bound by plasma protein ([5]; 50 μg/ml) [%] | percentage bound by plasma protein ([5]; 100 μg/ml) [%] | freezing responses (contextual fear memory) (5XFAD mice) | cell viability [6]
N=c1c2c(-c3ccccc3)c(-c3ccccc3)n(Cc3ccccc3)c2ncn1[C@H]1CC[C@H](O)CC1 [ML246] | lower level | reversed | dramatically decreased | significantly reduced | reversed | decreased | potently rescued | higher levels | potently blocked |  |  |  |  |  |  | 
CC(C)=CCC[C@](C)(O)[C@H]1CC[C@]2(C)[C@@H]1[C@H](O)C[C@@H]1[C@@]3(C)CC[C@H](O)C(C)(C)[C@@H]3[C@@H](O[C@@H]3O[C@H](CO)[C@@H](O)[C@H](O)[C@H]3O[C@@H]3O[C@@H](C)[C@H](O)[C@@H](O)[C@H]3O)C[C@]12C [Rg2, ginsenoside Rg2] |  |  | dramatically decreased |  |  |  | potently rescued | higher levels |  | does not alter | reduced | approximately 42% | ~24 | ~15 | rescued the freezing responses | grew as well as the control cells
